Source: ChEMBL document CHEMBL1150746, “Native American food and medicinal plants, 8. Water-soluble constituents of Lomatium dissectum” (1988)

Test system: Xanthomonas campestris
Test: Antimicrobial activity against Xanthomonas campestris at 0.5 mg/disk
Type: functional

Question: Which “inhibition zone (IZ)” value does the source give for `O=c1cc(-c2ccc(O)c(O)c2)oc2cc(O[C@@H]3O[C@H](CO)[C@@H](O)[C@H](O)[C@H]3O)cc(O)c12` [GALUTEOLIN] here?
Answer: 3 mm
